According to patent publication US8337914B2, “Dietary food supplement containing natural cyclooxygenase inhibitors and methods for inhibiting pain and inflammation” (Access Business Group International LLC, priority 1999, dated 2012):

Target: T1, COX-2 (Homo sapiens, UniProt P35354)
T1 construct: purchased
T1 sequence (P35354 18-604): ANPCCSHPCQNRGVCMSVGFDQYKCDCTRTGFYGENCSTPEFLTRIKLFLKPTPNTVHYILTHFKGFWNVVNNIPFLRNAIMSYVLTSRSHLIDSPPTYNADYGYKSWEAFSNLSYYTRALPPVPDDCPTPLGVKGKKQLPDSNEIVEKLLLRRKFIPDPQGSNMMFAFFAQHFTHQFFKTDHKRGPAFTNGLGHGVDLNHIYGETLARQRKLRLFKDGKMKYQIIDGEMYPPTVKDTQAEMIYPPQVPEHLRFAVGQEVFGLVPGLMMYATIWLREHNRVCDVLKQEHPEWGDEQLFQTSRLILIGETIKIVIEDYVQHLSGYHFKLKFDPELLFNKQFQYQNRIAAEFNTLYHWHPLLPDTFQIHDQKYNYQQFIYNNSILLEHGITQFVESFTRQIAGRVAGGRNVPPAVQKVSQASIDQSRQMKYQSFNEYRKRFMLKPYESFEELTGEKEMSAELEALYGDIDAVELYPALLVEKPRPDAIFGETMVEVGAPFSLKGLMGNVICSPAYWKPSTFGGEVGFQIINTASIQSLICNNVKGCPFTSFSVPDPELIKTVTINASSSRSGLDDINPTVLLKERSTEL
Assay: COX-2 enzyme assay with oxygen monitoring system (Example 3)
Assay type: biochemical
Conditions: for Specific Activity: the higher this number the more selective for COX-2 as opposed to COX-1
Procedure: The present example describes an enzyme assay method using an oxygen monitoring system to monitor the COX inhibitory activity of fruit extracts. In this assay the changes of concentration of dissolved oxygen are constantly monitored by an oxygen electrode in a Dissolved Oxygen Measuring System (Instech, Plymouth Meeting, Pa.). The output is recorded by a linear Recorder (Fisher Scientific, Pittsburgh, Pa.).
Each day a fresh potassium chloride solution (15 g/100 ml distilled water) was made and the electrode was set up according to manufacturers instructions. The chamber is kept at 37° C.
A prostaglandin assay kit was used and the assay set up in a manner similar to that described for the COX-1 assay. Briefly, 50 μl phenol was added to 20 ml 100 mM Tris buffer, warmed to 37° C. for 1 minute (working buffer). To a tube of hematin 0.9 ml of the working buffer was added. 50 μl 0.1NaOH was added to an arachidonic acid vial and vortexed. 0.43 ml water was added and the solution mixed again. Samples of extracts were weighed and dissolved in the working buffer to a final concentration of 0.1 g/ml. Buffer, samples or diluted samples are used in the enzyme assays directly.
The enzyme assay is performed according to the manufacturer's instruction, which should be well known to those of skill in the art. Briefly, 600 μl of working buffer were drawn into the chamber from the overflow outlet with the injection valve close, and the main outlet connected to a syringe in the right orientation. The stir bar was set a speed of 3 k/min. At 1 minute intervals, 5 ul enzyme, 15 ul hematin solution, 6 ul buffer or sample or diluted sample and 8 ul arachidonic acid solution was injected. The oxygen concentration changes were transformed into mV and recorded.

| Structure (SMILES) | Potency compared to Celebrex (COX-2 potency relative to Celebrex) [%] | Specific Activity |
| --- | --- | --- |
| O=c1c(O)c(-c2ccc(O)c(O)c2)oc2cc(O)cc(O)c12 [Quercetin standard, Quercetin] | 78 | 6.3 |
| CC(=O)Oc1ccccc1C(=O)O [Aspirin] | – | 0.5 |
